Patent US20080119462A1, “METHOD FOR TREATING VASCULAR HYPERPERMEABLE DISEASE” (Sucampo AG, priority 2003, published 2008)

Key:
[1] = target: T1, Human plasma SSAO (Homo sapiens, UniProt Q16853); test: Radiochemical-enzyme assay of VAP-1 enzyme (SSAO) activity with 14C-benzylamine, human plasma; assay type: biochemical
T1 construct: The enzyme suspension prepared from blood plasma was pre-incubated with Compound A; from tissue; host or cells: human blood plasma
T1 sequence (Q16853 27-763 limits assumed): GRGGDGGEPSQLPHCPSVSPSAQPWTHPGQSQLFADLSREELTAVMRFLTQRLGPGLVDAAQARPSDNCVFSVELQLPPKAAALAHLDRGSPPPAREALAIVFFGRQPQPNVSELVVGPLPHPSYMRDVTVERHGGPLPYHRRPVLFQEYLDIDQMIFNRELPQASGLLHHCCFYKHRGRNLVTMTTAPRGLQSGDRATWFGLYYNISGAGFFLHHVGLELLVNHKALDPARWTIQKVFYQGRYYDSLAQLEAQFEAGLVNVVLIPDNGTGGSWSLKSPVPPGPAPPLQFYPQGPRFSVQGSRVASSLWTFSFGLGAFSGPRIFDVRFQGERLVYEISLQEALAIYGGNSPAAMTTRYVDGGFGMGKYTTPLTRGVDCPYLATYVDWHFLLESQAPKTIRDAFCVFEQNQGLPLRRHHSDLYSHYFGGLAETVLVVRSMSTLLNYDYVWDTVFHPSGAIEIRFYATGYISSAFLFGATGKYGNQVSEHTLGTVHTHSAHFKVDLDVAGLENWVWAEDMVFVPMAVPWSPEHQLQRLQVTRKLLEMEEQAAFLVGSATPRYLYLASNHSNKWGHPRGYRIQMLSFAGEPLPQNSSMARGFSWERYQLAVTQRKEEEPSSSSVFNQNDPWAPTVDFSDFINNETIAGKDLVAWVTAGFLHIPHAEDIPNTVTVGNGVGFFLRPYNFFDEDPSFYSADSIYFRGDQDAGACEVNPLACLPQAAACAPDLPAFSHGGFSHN
Experimental: (§1) VAP-1 enzyme (SSAO) activity in both human and rat plasma was determined by a radiochemical-enzyme assay using ^14C-benzylamine as artificial substrate. The enzyme suspension prepared from blood plasma was pre-incubated with Compound A in 96-well microplate at room temperature for 30 min. The enzyme suspension was then incubated with ^14C-benzylamine (2×10^−5 mol/l final concentration) in a final volume of 50 μl at 37° C. for 1 hour. The enzyme reaction was terminated by adding 2 mol/l (50 μl) citric acid. The oxidized products were directly extracted into a 200 μl toluene scintillator, and its radioactivity was measured by a scintillation spectrometer. Monoamine oxidase (MAO) and diamine oxidase (DAO, histaminase) activities were also determined by similar method using ^14C-phenylethylamine and ^14C-putrescine as substrate, respectively. Cloned DAO from cDNA libraries was used in human DAO assay. Inhibition activity was expressed as IC50 (μmol/l) value.

[2] = target: T2, plasma SSAO (Rattus norvegicus, UniProt O08590); test: Plasma SSAO activity in STZ diabetic rats after treatment; assay type: in vivo
T2 construct: The enzyme suspension prepared from blood plasma was pre-incubated with Compound A; from tissue; host or cells: rat blood plasma
T2 sequence (O08590 27-763 limits assumed): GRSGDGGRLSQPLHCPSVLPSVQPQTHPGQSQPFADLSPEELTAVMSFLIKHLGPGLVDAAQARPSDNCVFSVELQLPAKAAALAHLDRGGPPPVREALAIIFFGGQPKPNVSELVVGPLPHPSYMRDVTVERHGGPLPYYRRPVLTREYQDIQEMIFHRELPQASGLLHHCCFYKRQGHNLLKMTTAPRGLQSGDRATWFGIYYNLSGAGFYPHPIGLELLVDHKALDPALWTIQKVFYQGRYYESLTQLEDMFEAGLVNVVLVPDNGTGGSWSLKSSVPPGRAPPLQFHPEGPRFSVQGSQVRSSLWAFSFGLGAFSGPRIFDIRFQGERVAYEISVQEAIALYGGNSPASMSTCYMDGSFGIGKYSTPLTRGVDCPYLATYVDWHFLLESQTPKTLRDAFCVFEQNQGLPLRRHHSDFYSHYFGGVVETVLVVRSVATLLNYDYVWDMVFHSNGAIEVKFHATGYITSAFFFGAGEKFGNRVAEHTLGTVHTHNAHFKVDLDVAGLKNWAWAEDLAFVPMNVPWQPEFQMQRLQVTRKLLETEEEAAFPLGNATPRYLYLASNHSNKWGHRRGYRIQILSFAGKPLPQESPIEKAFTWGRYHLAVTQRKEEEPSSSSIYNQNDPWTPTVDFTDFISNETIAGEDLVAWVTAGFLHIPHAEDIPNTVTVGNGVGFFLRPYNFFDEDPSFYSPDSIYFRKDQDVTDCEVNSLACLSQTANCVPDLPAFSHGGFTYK
Experimental: (§2) Diabetes in rats was induced with an intraperitoneal (i.p.) injection of 65 mg/ml/kg of streptozotocin (STZ) in 2 mmol/l citrate buffer (pH 4.5) after a 20-h fast. At the same time control rats were injected with an equal volume of 2 mmol/l citrate buffer. Plasma glucose level was checked by a calorimetric method. At day 3 of STZ treatment, the rats were diagnosed with diabetes showing a plasma glucose level of 350 mg/dl.
(§3) The treatment of Compound A was given daily from 2 weeks after STZ treatment for 2 weeks. At 24 hrs after final treatment of Compound A, the vascular permeability in oculus was investigated based on the leakage of dye into the vitreous 30 min after intravenous injection of fluorescein solution (40 mg/ml/kg). Permeability was expressed as vitreous/plasma ratio of fluorescein concentration measured by a fluorophotometer. At the same time, the plasma SSAO activity was checked by the radiochemical-enzyme assay using ^14C-benzylamine (2×10^−5 mol/l final concentration) as substrate.

[3] = system: diabetic rats; test: Ocular permeability in STZ diabetic rats (leakage of fluorescein into the vitreous); assay type: in vivo, rat; details: 10 mg/kg, s.c. u.i.d., daily from 2 weeks after STZ for 2 weeks, mean ± S.E.M., 10 rats
Experimental: as §2, §3
In the same manner as in Example 2, the effect of various VAP-1 inhibitors on ocular permeability was determined in diabetic rats.

[4] = system: retinal VEGF; test: Retinal VEGF level in STZ diabetic rats (Murine VEGF ELISA kit); assay type: in vivo, rat; details: 0.1 mg/kg, sc, u.i.d.
Experimental: STZ diabetic rats were prepared in the same manner as in Example 2. Compound A (0.1 mg/kg, sc, u.i.d.) was administered from 3 days to 8 weeks after the STZ administration. To the normal group and STZ control group, a vehicle was treated. At 8 weeks from the STZ administration, the retina was removed from the animals and the retinal VEGF level was determined using a Murine VEGF ELISA kit.

[5] = target: T3, Rat plasma SSAO (Rattus norvegicus, UniProt O08590); test: Radiochemical-enzyme assay of VAP-1 enzyme (SSAO) activity with 14C-benzylamine, rat plasma; assay type: biochemical
T3 construct: The enzyme suspension prepared from blood plasma was pre-incubated with Compound A; from tissue; host or cells: rat blood plasma
T3 sequence (O08590 27-763 limits assumed): T2 sequence (O08590 27-763 limits assumed)
Experimental: as §1

Inhibition of the enzyme activity of human plasma SSAO (in words) [1]: completely inhibited
IC50 ([1]; 30 min pre-incubation, 14C-benzylamine 2×10^−5 mol/l, 37° C., 1 hour, read-out: Inhibitory effect (IC50 values) Human plasma SSAO): 0.15 µM
Effect on the increased plasma SSAO activity in diabetic rats (in words) ([2]; 4 weeks after STZ treatment): dose-dependent inhibition
Plasma SSAO activity ([2]; STZ diabetic rats, 4 weeks after STZ, Compound A treatment daily from 2 weeks after STZ, mean ± S.E.M., 10 rats): 2.51 ± 0.26 pmol/min/mL
Inhibition of the enzyme activity of rat plasma SSAO (in words) [5]: completely inhibited
IC50 ([5]; 30 min pre-incubation, 14C-benzylamine 2×10^−5 mol/l, 37° C., 1 hour, read-out: Inhibitory effect (IC50 values) Rat plasma SSAO): 0.012 µM
Compound: CC(=O)Nc1nc(CCc2ccc(NC(=N)N)cc2)cs1 [Compound A, N-{4-[2-(4-{[amino(imino)methyl]amino}phenyl)ethyl]-1,3-thiazol-2-yl}acetamide]
Vitreous/Plasma Ratio of Fluorescein Concentration [3]: 5.39 ± 0.73 ×10^−3
Effect on the increased retinal VEGF level in STZ diabetic rats (in words) ([4]; 3 days to 8 weeks after STZ): completely inhibited
Retinal VEGF level ([4]; STZ diabetic rats, from 3 days to 8 weeks after STZ, mean ± S.E.M., 10 rats): 28.3 ± 2.72 pg/mg protein
